ChEMBL document CHEMBL1141761, “Constituents of the pericarp of Garcinia subelliptica” (J Nat Prod, 2005)
Values after ≈ are worked out from the molar mass of the structure shown. Active and inactive are the calls of the source. The calls are words filed in the database; no cut-off is given here.

Assays:
MCF7 = test: Cytotoxicity against human MCF7 cells by MTT assay; type: functional, cell-based
Hep 3B2 = test: (§1) Cytotoxicity against human Hep3B cells by MTT assay; type: functional, cell-based
HT-29 = test: Cytotoxicity against human HT-29 cells by MTT assay; type: functional, cell-based
[1] = as §1; type: functional, cell-based, Hep 3B2

For `C=C(C)CC[C@@H](CC=C(C)C)[C@@H](C(=C)C)[C@](C)(CC=C(C)C)C(=O)c1cccc(O)c1`, the Activity (MCF7) was “inactive”, the Activity (Hep 3B2) was “inactive” and the Activity (HT-29) was “inactive”.

Compound `O=c1[nH]cc(F)c(=O)[nH]1` [FLUOROURACIL] has an IC50 (MCF7) of 0.0012 µg/mL (≈ 0.00923 µM), an IC50 [1] of 0.072 µg/mL (≈ 0.554 µM) and an IC60 (HT-29) of 0.074 µg/mL (≈ 0.569 µM).

For `C=C(C)CC[C@@H](C[C@@H]1C[C@]2(CC=C(C)C)C(=O)[C@@](C(=O)c3ccc(O)c(O)c3)(C(=O)C3=C2O[C@@H](C(C)(C)O)C3)C1(C)C)C(=C)C` [GARCINIELLIPTONE FB], the IC50 (MCF7) was 6.8 µg/mL (≈ 11 µM), the IC50 [1] was 6.3 µg/mL (≈ 10.2 µM) and the IC50 (HT-29) was 11.2 µg/mL (≈ 18.1 µM).
